The values that follow come from patent US20160090556A1, “PRODUCTS COMPRISING MALODOR REDUCTION MATERIALS” (The Procter & Gamble Company, priority 2014, published 2016).

This data set can be described thus: Liquid dish neat product liquid-air partition coefficient. In kind it is physicochemical.
Setting [1] is: class code letter within Comment Code.

Where two headings read alike, the source gives them in different places.

As to `COCc1ccc(O)c(OC)c1` [Material 1113], the “Comment Code: Log of liquid dish neat product liquid-air partition coefficient” value (“Comment Code: Log” for short) (codes K/L of the Comment Code, Table 1) is “K (Log of liquid dish neat product liquid-air partition coefficient greater than or equal to −7)”.
As for `CC(C)=CCCC(C)=CCC1CCCC1=O` (centres unmarked) [Material 307], the “Log of liquid dish neat product liquid-air partition coefficient (Comment Code K/L)” value (“Log … (Comment Code K/L)” below) under setting [1] is on record as “K (Log of liquid dish neat product liquid-air partition coefficient greater than or equal to −7)”.
Take `CCOC(=O)C1C2C=CC(C2)C1C(C)C` (centres unmarked) [Material 280]: under setting [1], the “Log … (Comment Code K/L)” value was “K (Log of liquid dish neat product liquid-air partition coefficient greater than or equal to −7)”.
As for `CCOCOC1CCCCCCCCCCC1` [Material 607], the “Log … (Comment Code K/L)” value was “K (Log of liquid dish neat product liquid-air partition coefficient greater than or equal to −7)”.
Turning to `C=CC(C)=CCCC(C)(C)O` [Material 43], the “Log … (Comment Code K/L)” value under setting [1] is “K (Log of liquid dish neat product liquid-air partition coefficient greater than or equal to −7)”.
Regarding `CC1=CCC(C23CCCC(C)(C2)OC3)C1(C)C` (centres unmarked) [Material 570], the “Log … (Comment Code K/L)” value was “K (Log of liquid dish neat product liquid-air partition coefficient greater than or equal to −7)”. Under “code letters K, L”, the “Comment Code: Log” value is “K (Log of liquid dish neat product liquid-air partition coefficient greater than or equal to −7)”.
Take `CC(C)c1ccc(CO)cc1` [Material 491]: the “Log … (Comment Code K/L)” value under setting [1] is “K (Log of liquid dish neat product liquid-air partition coefficient greater than or equal to −7)”.
On to `C=CC(C)=CCC=C(C)CCC=C(C)C=O` [Material 691], for which the “Log … (Comment Code K/L)” value was “K (Log of liquid dish neat product liquid-air partition coefficient greater than or equal to −7)”.
In the case of `C=C[C@@](C)(O)CCC=C(C)C` [Material 1017], the “Comment Code: Log” value (code letters K, L) was “K (Log of liquid dish neat product liquid-air partition coefficient greater than or equal to −7)”.
In the case of `CC(C)C(=O)OC1CC2CCC1(C)C2(C)C` (centres unmarked) [Material 229], the “Log … (Comment Code K/L)” value under setting [1] is on record as “K (Log of liquid dish neat product liquid-air partition coefficient greater than or equal to −7)”. For the setting “code letters K, L”, the “Comment Code: Log” value is listed as “K (Log of liquid dish neat product liquid-air partition coefficient greater than or equal to −7)”.
Take `C=CCc1ccc(OC)c(OC)c1` [Material 110]: the “Log … (Comment Code K/L)” value under setting [1] is on record as “K (Log of liquid dish neat product liquid-air partition coefficient greater than or equal to −7)”.
On the same count and under the same terms, under `COc1ccccc1-c1ccccc1` [Material 22] stands “K (Log of liquid dish neat product liquid-air partition coefficient greater than or equal to −7)”.
As for `CC1CC=CCCCCCCCC(=O)OCC1` (centres unmarked) [Material 1099], the “Log … (Comment Code K/L)” value is recorded as “K (Log of liquid dish neat product liquid-air partition coefficient greater than or equal to −7)”.
With `C/C=C(\C)C(=O)OCC/C=C\CC` [Material 536], where the note is “code letters K, L”, the “Comment Code: Log” value was “K (Log of liquid dish neat product liquid-air partition coefficient greater than or equal to −7)”.
As to `COC(C)(C)CCCC(C)C=O` (centres unmarked) [Material 125], the “Comment Code: Log” value (code letters K, L) is “K (Log of liquid dish neat product liquid-air partition coefficient greater than or equal to −7)”.
Regarding `CCCCCCCCOC(=O)c1ccco1` [Material 28], the “Log … (Comment Code K/L)” value under setting [1] is on record as “K (Log of liquid dish neat product liquid-air partition coefficient greater than or equal to −7)”.
With `CCC(C)(O)CCc1ccccc1` (centres unmarked) [Material 731], the “Log … (Comment Code K/L)” value is “K (Log of liquid dish neat product liquid-air partition coefficient greater than or equal to −7)”.
Take `CCCCCOC(=O)c1ccccc1` [Material 672]: the “Comment Code: Log” value (code letters K, L) was “K (Log of liquid dish neat product liquid-air partition coefficient greater than or equal to −7)”.
